Measured values reported in patent US11324750B2, “Compositions and methods for the treatment of severe acute respiratory syndrome coronavirus 2 (SARS-CoV-2) infection” (Children's Hospital Medical Center, priority 2020, dated 2022).

Tested on: severe COVID-19 patients
Test: Randomized controlled trial, safety: adverse events up to day 28
Format: in vivo, human
Conditions: for ALT increase, % patients / ALT increase, n patients / AST increase, % patients / AST increase, n patients / Acute heart failure, n patients / Alkaline phosphatase increase, % patients / Alkaline phosphatase increase, n patients / Anemia, % patients / Anemia, n patients / Chemical laboratory abnormalities, % patients / Chemical laboratory abnormalities, n patients / Decreased appetite, % patients / Decreased appetite, n patients / Dizziness, % patients / Dizziness, n patients / Headache, % patients / Headache, n patients / Hematological adverse events, % patients / Hematological adverse events, n patients / Hypercholesterolemia, % patients / Hypercholesterolemia, n patients / Hypertension, % patients / Hypertension, n patients / Hypertriglyceridemia, n patients / Hypoalbuminemia, % patients / Hypoalbuminemia, n patients / Hypocalcemia, % patients / Hypocalcemia, n patients / Hypochloremia, % patients / Hypochloremia, n patients / Hypokalemia, % patients / Hypokalemia, n patients / Lymphocytopenia, % patients / Lymphocytopenia, n patients / Nausea, % patients / Nausea, n patients / Neutrocytopenia, % patients / Neutrocytopenia, n patients / Rash, % patients / Rash, n patients / Secondary Infection, n patients / Sepsis, n patients / Serious adverse events, n patients / Shock, n patients / Thrombocytopenia, % patients / Thrombocytopenia, n patients / γ-GT increase, % patients / γ-GT increase, n patients / Adverse events, % patients / Adverse events, n patients: N = 20, through day 28; for Adverse events, % patients / Adverse events, n patients: line above headache, dizziness, rash, nausea, decreased appetite, hypertension
Text: As of the effective date of this application, no therapeutics have yet been proven effective for the treatment of severe COVID-19 with cytokine storm. Ruxolitinib, a potent and selective oral inhibitor of Janus kinase (JAK) 1 and JAK2, was proposed by Applicant to be beneficial in the treatment of cytokine storm. Applicant conducted a prospective, multicenter, single-blind, randomized controlled trial involving participants diagnosed as severe COVID-19 patients. The enrolled patients were randomly separated into two groups with a 1:1 allocation by an independent statistician in blocks of 4 for all 3 sites. Study number and treatment allocation codes were provided in sequentially numbered opaque envelops. Intervention group is treated with ongoing oral intake 5 mg of ruxolitinib (Jakafi®, Novartis Pharma Stein AG, Switzerland) twice a day based on the standard-of-care (SoC); the control group is treated with placebo plus SoC. The primary endpoint was the incidence of serious adverse events occurring up to 28 days and the time to clinical improvement. The secondary endpoint is the overall mortality at D28. This trial is registered at www.chictr.org.cn as ChiCTR-OPN-2000029580.
Procedures. The first day of randomization was designated as D0. The second and the fourth day after randomization were designated D1 and D3, respectively. Dx referred to the day when either disease progressed according to the Chinese management guideline for COVID-19 (version 5.0) or defined as a one-category increase on the seven-category scale. Dend was the day before discharge. The enrolled patients were randomly separated into two groups: the treatment group (group B) received oral intake of ruxolitinib (Jakafi®, Novartis Pharma Stein AG, Switzerland) 5 mg twice a day plus standard-of-care (SoC); the control group (group A) is treated with placebo twice a day with SoC. The SoC included supplemental oxygen, noninvasive and invasive ventilation, corticosteroid, antibiotic agents, vasopressor support, renal-replacement therapy, and extracorporeal membrane oxygenation (ECMO) etc. Safety was monitored daily by two independent senior physicians from the trial center. Adverse events were classified according to the National Cancer Institute Common Terminology Criteria for Adverse Events, version 5.0. Non-contrast enhanced chest CT examinations were performed on D0 and followed-up at least once within two weeks. Additional chest CT may be performed if the condition deteriorated. All CT images were reviewed using Picture archiving and communication system (PACS). The CT features of improvement were evaluated by two independent senior radiologists blindly, which should at least meet one of the following criteria: decreased presence of ground-glass opacities (GGO), decreased lung opacification, reduced density of consolidation or decreased pleural effusion with existence of fibrous stripes^29. Peripheral blood was taken from patients on D1, D3, Dx and/or Dend for the determination of viral load by one-step RT-ddPCR, SARS-CoV-2-specific IgM and IgG by paramagnetic particle chemiluminescent immunoassay (CLIA) and cytokines measurements by Luminex FlEXMAP 3D system. Every participant's data is filled in one case record form (CRF). All the CRF tables were inputted and saved by researchers into an electronic data capture system (EDCS) and validated by a trial staff, including demographics, medical history, daily clinical findings, oximetric measurements and laboratory data involving complete blood count, serum biochemical parameters and high sensitivity C-reactive protein (hsCRP) etc.
Outcomes. The primary safety endpoint was the incidence of serious adverse events occurring up to 28 days. Safety outcomes included adverse events that occurred during treatment, serious adverse events and premature discontinuation of treatment. […]

[1] = Grade 3-4, listed as ruxolitinib

## N#CC[C@H](C1CCCC1)n1cc(-c2ncnc3[nH]ccc23)cn1 [Ruxolitinib, (3R)-3-cyclopentyl-3-[4-(7H-pyrrolo[2,3-d]pyrimidin-4-yl)pyrazol-1-yl]propanenitrile]
Any Grade
  ALT increase, % patients: (35.0%)
  ALT increase, n patients: 7
  AST increase, % patients: (15.0%)
  AST increase, n patients: 3
  Acute heart failure, n patients: 0
  Alkaline phosphatase increase, % patients: (10.0%)
  Alkaline phosphatase increase, n patients: 2
  Anemia, % patients: (55.0%)
  Anemia, n patients: 11
  Chemical laboratory abnormalities, % patients: (50.0%)
  Chemical laboratory abnormalities, n patients: 10
  Decreased appetite, % patients: (5.0%)
  Decreased appetite, n patients: 1
  Dizziness, % patients: (10.0%)
  Dizziness, n patients: 2
  Headache, % patients: (5.0%)
  Headache, n patients: 1
  Hematological adverse events, % patients: (65.0%)
  Hematological adverse events, n patients: 13
  Hypercholesterolemia, % patients: (20.0%)
  Hypercholesterolemia, n patients: 4
  Hypertension, % patients: (5.0%)
  Hypertension, n patients: 1
  Hypertriglyceridemia, n patients: 0
  Hypoalbuminemia, % patients: (5.0%)
  Hypoalbuminemia, n patients: 1
  Hypocalcemia, % patients: (5.0%)
  Hypocalcemia, n patients: 1
  Hypochloremia, % patients: (5.0%)
  Hypochloremia, n patients: 1
  Hypokalemia, % patients: (5.0%)
  Hypokalemia, n patients: 1
  Lymphocytopenia, % patients: (5.0%)
  Lymphocytopenia, n patients: 1
  Nausea, % patients: (10.0%)
  Nausea, n patients: 2
  Neutrocytopenia, % patients: (5.0%)
  Neutrocytopenia, n patients: 1
  Rash, % patients: (10.0%)
  Rash, n patients: 2
  Secondary Infection, n patients: 0
  Sepsis, n patients: 0
  Serious adverse events, n patients: 0
  Shock, n patients: 0
  Thrombocytopenia, % patients: (20.0%)
  Thrombocytopenia, n patients: 4
  γ-GT increase, % patients: (10.0%)
  γ-GT increase, n patients: 2
  Adverse events, % patients: (35.0%)
  Adverse events, n patients: 7
Grade 1-2
  ALT increase, % patients: (35.0%)
  ALT increase, n patients: 7
  AST increase, % patients: (15.0%)
  AST increase, n patients: 3
  Acute heart failure, n patients: 0
  Alkaline phosphatase increase, % patients: (10.0%)
  Alkaline phosphatase increase, n patients: 2
  Anemia, % patients: (55.0%)
  Anemia, n patients: 11
  Chemical laboratory abnormalities, % patients: (50.0%)
  Chemical laboratory abnormalities, n patients: 10
  Decreased appetite, % patients: (5.0%)
  Decreased appetite, n patients: 1
  Dizziness, % patients: (10.0%)
  Dizziness, n patients: 2
  Headache, % patients: (5.0%)
  Headache, n patients: 1
  Hematological adverse events, % patients: (60.0%)
  Hematological adverse events, n patients: 12
  Hypercholesterolemia, % patients: (20.0%)
  Hypercholesterolemia, n patients: 4
  Hypertension, n patients: 0
  Hypertriglyceridemia, n patients: 0
  Hypoalbuminemia, % patients: (5.0%)
  Hypoalbuminemia, n patients: 1
  Hypocalcemia, % patients: (5.0%)
  Hypocalcemia, n patients: 1
  Hypochloremia, % patients: (5.0%)
  Hypochloremia, n patients: 1
  Hypokalemia, % patients: (5.0%)
  Hypokalemia, n patients: 1
  Lymphocytopenia, % patients: (5.0%)
  Lymphocytopenia, n patients: 1
  Nausea, % patients: (10.0%)
  Nausea, n patients: 2
  Neutrocytopenia, % patients: (5.0%)
  Neutrocytopenia, n patients: 1
  Rash, % patients: (10.0%)
  Rash, n patients: 2
  Secondary Infection, n patients: 0
  Sepsis, n patients: 0
  Serious adverse events, n patients: 0
  Shock, n patients: 0
  Thrombocytopenia, % patients: (20.0%)
  Thrombocytopenia, n patients: 4
  γ-GT increase, % patients: (10.0%)
  γ-GT increase, n patients: 2
  Adverse events, % patients: (35.0%)
  Adverse events, n patients: 7
Grade 3-4
  ALT increase, n patients: 0
  AST increase, n patients: 0
  Acute heart failure, n patients: 0
  Alkaline phosphatase increase, n patients: 0
  Anemia, n patients: 0
  Chemical laboratory abnormalities, n patients: 0
  Decreased appetite, n patients: 0
  Dizziness, n patients: 0
  Headache, n patients: 0
  Hematological adverse events, % patients: 5.0%
  Hematological adverse events, n patients: 1
  Hypercholesterolemia, n patients: 0
  Hypertension, % patients: 5.0%
  Hypertension, n patients: 1
  Hypertriglyceridemia, n patients: 0
  Hypoalbuminemia, n patients: 0
  Hypocalcemia, n patients: 0
  Hypochloremia, n patients: 0
  Hypokalemia, n patients: 0
  Lymphocytopenia, % patients: 5.0%
  Lymphocytopenia, n patients: 1
  Nausea, n patients: 0
  Neutrocytopenia, n patients: 0
  Rash, n patients: 0
  Secondary Infection, n patients: 0
  Sepsis, n patients: 0
  Serious adverse events, n patients: 0
  Shock, n patients: 0
  Thrombocytopenia, n patients: 0
  γ-GT increase, n patients: 0
  Adverse events, n patients: 0
[1]
  Hematological adverse events, n patients: 2
  Hypertension, n patients: One
All ruxolitinib recipients, lymphocytopenia and hypertension, transient and reversible
  Adverse events at grade 3-4, number of events: two
From randomization to D28, primary safety endpoint
  Patients who reported adverse events, %: 80%
Primary safety endpoint
  Unexpected adverse events: No significant unexpected adverse events
Ruxolitinib with SoC treatment
  Tolerability: well tolerated
